Structures can show the parent of a compound that is named as a salt.

Broadly, the IC50 is the concentration that inhibits the measured activity by half. Higher therefore signals weaker potency in that assay.

Experiment [1] addresses T1, rNHE3 (Rattus norvegicus, UniProt P26433).
T1 construct: expressed in transfected cells; host or cells: LAP1 cells (fibroblasts)
As to the kind of experiment: Recovery of intracellular pH after acidification (BCECF fluorescence) in LAP1 fibroblasts. The experiment is classed as cell-based. As for the experimental part: In this test, the recovery in the intracellular pH (pHi) after an acidification was ascertained, which is initiated if the NHE3 is capable of functioning, even under bicarbonate-free conditions. For this purpose, the pHi was determined using the pH-sensitive fluorescent dye BCECF (Calbiochem, the precursor BCECF-AM is employed). The cells (fibroblasts, LAP1 cells) were initially loaded with BCECF. The BCECF fluorescence was determined in a “Ratio Fluorescence Spectrometer” (Photon Technology International, South Brunswick, N.J., USA) at excitation wavelengths of 505 and 440 nm and an emission wavelength of 535 nm and converted into the pHi using calibration curves. The cells were incubated in NH4Cl buffer (pH 7.4) (NH4Cl buffer: 115 mM NaCl, 20 mM NH4Cl, 5 mM KCl, 1 mM CaCl2, 1 mM MgSO4, 20 mM Hepes, 5 mM glucose, 1 mg/ml BSA; a pH of 7.4 is adjusted with 1 M NaOH) even during the BCECF loading. The intracellular acidification was induced by adding 975 μl of an NH4Cl-free buffer (see below) to 25 μl aliquots of the cells incubated in NH4Cl buffer. The subsequent rate of pH recovery was recorded for three minutes. To calculate the inhibitory potency of the tested substances, the cells were initially investigated in buffers with which a complete or absolutely no pH recovery took place. For complete pH recovery (100%), the cells were incubated in Na^+-containing buffer (133.8 mM NaCl, 4.7 mM KCl, 1.25 mM CaCl2, 1.25 mM MgCl2, 0.97 mM Na2HPO4, 0.23 mM NaH2PO4, 5 mM Hepes, 5 mM glucose, a pH of 7.0 is adjusted with 1 M NaOH). To determine the 0% value, the cells were incubated in an Na^+-free buffer (133.8 mM choline chloride, 4.7 mM KCl, 1.25 mM CaCl2, 1.25 mM MgCl2, 0.97 mM K2HPO4, 0.23 mM KH2PO4, 5 mM Hepes, 5 mM glucose, a pH of 7.0 is adjusted with 1 M KOH). The substances to be tested were made up in the Na^+-containing buffer. The recovery of the intracellular pH at each test concentration of a substance was expressed as a percentage of the maximum recovery. The IC50 value for the particular substance for the individual NHE subtypes was calculated from the pH recovery percentages using the Sigma-Plot program.

For experiment [2] the following is noted: mediated by alpha2 and I1 receptors; Ernsberger et al.; cited from earlier work.
The test system of experiment [3] is imidazoline I1 receptor. The following applies: Ernsberger et al, Eur. J. Pharmacol. 134, 1, 1987; cited from earlier work.
Experiment [4] has as its system adrenergic alpha2 receptor. The settings on record: Ernsberger et al, Eur. J. Pharmacol. 134, 1, 1987; cited from earlier work.
In experiment [5] the test system is NHE3. The following applies: M. Donowitz et al., Am. J. Physiol. 276; cited from earlier work.

T1 sequence (P26433 29-831): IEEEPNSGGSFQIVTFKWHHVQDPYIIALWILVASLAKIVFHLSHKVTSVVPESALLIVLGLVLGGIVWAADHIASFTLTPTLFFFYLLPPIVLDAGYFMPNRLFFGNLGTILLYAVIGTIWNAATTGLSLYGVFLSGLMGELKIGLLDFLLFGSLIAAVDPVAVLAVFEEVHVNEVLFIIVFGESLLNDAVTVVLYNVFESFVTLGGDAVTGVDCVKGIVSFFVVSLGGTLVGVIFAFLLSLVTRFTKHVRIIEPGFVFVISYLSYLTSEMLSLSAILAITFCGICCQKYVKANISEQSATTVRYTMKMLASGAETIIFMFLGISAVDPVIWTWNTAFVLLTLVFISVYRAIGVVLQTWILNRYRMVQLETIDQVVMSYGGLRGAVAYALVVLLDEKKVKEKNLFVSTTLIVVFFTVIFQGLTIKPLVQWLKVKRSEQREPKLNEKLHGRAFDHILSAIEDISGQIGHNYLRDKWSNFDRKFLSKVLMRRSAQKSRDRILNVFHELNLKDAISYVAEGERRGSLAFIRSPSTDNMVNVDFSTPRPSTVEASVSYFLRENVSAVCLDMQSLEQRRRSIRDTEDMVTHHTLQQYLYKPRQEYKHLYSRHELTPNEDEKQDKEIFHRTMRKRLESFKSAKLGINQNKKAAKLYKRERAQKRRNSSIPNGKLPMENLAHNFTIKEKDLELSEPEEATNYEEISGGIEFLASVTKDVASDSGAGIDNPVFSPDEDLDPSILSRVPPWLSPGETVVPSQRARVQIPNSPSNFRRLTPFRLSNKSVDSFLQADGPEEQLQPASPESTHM

For the molecule `CCN(c1nc2ccccc2[nH]1)c1c(Cl)cccc1Cl` [Example 1, (1H-Benzoimidazol-2-yl)(2,6-dichlorophenyl)ethylamine], in experiment [1], it took 0.57 µM to reach half-maximal inhibition (IC50). In experiment [1], `C=CCN(c1nc2ccccc2[nH]1)c1c(Cl)cccc1Cl` [Example 5, Allyl(1H-benzoimidazol-2-yl)(2,6-dichlorophenyl)amine] returned an IC50 of 1.5 µM. For the molecule `CN(c1nc2ccccc2[nH]1)c1c(Cl)cccc1Cl` [Example 2, (1H-Benzoimidazol-2-yl)(2,6-dichlorophenyl)methylamine hydrochloride], in experiment [1], the IC50 turned out to be 0.53 µM. `Clc1cccc(Cl)c1N=C1NCCN1` [Clonidine]: in experiment [2], the blood pressure-lowering effect entry was “strong blood pressure-lowering effect”. In experiment [3], the “affinity for the imidazoline I1 receptor” value is reported as “high affinity”. In addition, in experiment [4], the “affinity for the adrenergic alpha2 receptor” value is “high affinity”. With `Clc1cccc(Cl)c1N(c1nc2ccccc2[nH]1)C1CCCC1` [Example 6, (1H-Benzoimidazol-2-yl)cyclopentyl(2,6-dichlorophenyl)amine], the IC50 in experiment [1] amounted to 8.3 µM. On the same count and under the same terms, with `CN(c1nc2cc(F)ccc2[nH]1)c1c(Cl)cccc1Cl` [Example 4, (2,6-Dichlorophenyl)(5-fluoro-1H-benzoimidazol-2-yl)methylamine] the figure was 3.3 µM. Take `CC(C)[C@@H](CC[C@@H](C)[C@H]1CC[C@H]2[C@@H]3[C@H](O)C[C@H]4C[C@@H](NCCCNCCCCN)CC[C@]4(C)[C@H]3CC[C@]12C)OS(=O)(=O)O` [Squalamine]: the “time to maximum strength of effect as NHE3 inhibitor” value in experiment [5] is “only after one hour”. On to `CC(C)N(c1nc2ccccc2[nH]1)c1c(Cl)cccc1Cl` [Example 3, (1H-Benzoimidazol-2-yl)(2,6-dichlorophenyl)isopropylamine], for which the IC50 in experiment [1] came to 9.3 µM.
